Test results taken from US20210070748A1, “INHIBITORS OF BRUTONS TYROSINE KINASE” (Pharmacyclics LLC, priority 2015, published 2021).

Legend:
[1] = target: SRC (Homo sapiens, UniProt P12931); experiment: Inhibition of a panel of kinases, in vitro HotSpot kinase assay: SRC; type: biochemical; details: D-compounds panel data; 1 μM ATP
Experimental: The degree of inhibition of a panel of kinases is determined using the in vitro HotSpot kinase assay (purified enzymes, ^33P-ATP, an appropriate substrate and 1 μM ATP).

[2] = target: T1, BTK-WT (Homo sapiens, UniProt Q06187); experiment: Btk in vitro inhibitory activity (one of Method A TR-FRET, Method B electrophoretic mobility shift, Method C radiometric filter binding); type: biochemical; details: D-compounds panel data; read-out: IC50 BTK-WT
T1 construct: purified from insect cells as a full-length construct containing an N-terminal 6X-His tag; His6 (N); made in house; host or cells: insect cells (baculovirus Sf21 in Method B)
T1 sequence (Q06187 whole entry): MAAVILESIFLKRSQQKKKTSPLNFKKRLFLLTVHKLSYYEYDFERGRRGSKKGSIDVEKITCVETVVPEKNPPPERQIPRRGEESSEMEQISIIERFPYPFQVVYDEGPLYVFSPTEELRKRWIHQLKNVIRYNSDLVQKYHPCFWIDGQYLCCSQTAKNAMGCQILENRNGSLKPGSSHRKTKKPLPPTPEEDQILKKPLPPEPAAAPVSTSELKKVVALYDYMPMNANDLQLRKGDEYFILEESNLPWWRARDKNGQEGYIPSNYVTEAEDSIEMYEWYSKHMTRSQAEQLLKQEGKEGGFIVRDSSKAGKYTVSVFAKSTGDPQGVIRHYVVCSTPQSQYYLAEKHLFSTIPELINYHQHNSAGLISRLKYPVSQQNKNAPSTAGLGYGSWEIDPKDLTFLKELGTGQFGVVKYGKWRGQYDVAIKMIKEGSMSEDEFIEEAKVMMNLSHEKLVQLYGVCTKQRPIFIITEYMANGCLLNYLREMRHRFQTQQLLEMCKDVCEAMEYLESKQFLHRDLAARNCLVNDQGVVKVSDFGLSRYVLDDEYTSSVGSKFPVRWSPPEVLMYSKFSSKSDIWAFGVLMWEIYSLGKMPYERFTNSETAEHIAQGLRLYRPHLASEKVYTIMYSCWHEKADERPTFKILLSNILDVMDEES

Sequence of SRC (P12931 whole entry): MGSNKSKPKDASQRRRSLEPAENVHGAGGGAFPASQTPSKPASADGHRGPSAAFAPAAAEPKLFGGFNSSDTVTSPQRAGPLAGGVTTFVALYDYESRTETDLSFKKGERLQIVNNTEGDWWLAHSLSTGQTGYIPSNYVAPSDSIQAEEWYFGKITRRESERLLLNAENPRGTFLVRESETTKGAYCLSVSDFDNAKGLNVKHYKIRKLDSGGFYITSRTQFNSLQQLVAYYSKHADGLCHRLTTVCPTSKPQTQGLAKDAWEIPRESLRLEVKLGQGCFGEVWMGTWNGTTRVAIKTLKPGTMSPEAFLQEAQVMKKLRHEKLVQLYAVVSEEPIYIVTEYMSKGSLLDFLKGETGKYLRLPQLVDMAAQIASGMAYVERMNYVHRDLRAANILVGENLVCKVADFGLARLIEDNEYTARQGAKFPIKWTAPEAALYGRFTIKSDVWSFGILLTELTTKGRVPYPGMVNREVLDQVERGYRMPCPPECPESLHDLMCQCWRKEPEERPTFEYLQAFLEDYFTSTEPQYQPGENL

Work on `Cc1ncc(Nc2nc(N3CCC[C@@H](NC(=O)c4ccc(C5CC5)cc4)[C@H]3C)cnc2C(N)=O)s1` [Example D-210, 5-[(2R,3R)-3-(4-cyclopropylbenzamido)-2-methylpiperidin-1-yl]-3-[(2-methyl-1,3-thiazol-5-yl)amino]pyrazine-2-carboxamide] yielded an IC50 [1] of 0.1 to 1 µM and an IC50 [2] of at most 0.01 µM.
Work on `C[C@@H]1[C@H](NC(=O)c2ccc(C3(O)CC3)cc2)CCCN1c1cnc(C(N)=O)c(Nc2cnn(C)c2)n1` [Example D-235, 5-[(2R,3R)-3-[4-(1-hydroxycyclopropyl)benzamido]-2-methylpiperidin-1-yl]-3-[(1-methyl-1H-pyrazol-4-yl)amino]pyrazine-2-carboxamide] yielded an IC50 [1] of 0.01 to 0.1 µM and an IC50 [2] of at most 0.01 µM.
In the case of `C[C@@H]1[C@H](NC(=O)c2ccc(C(C)(C)C)cc2)CCCN1c1cnc(C(N)=O)c(Nc2ccc(N3CCN(C)CC3)cc2)n1` [Example D-14, 5-[(2R,3R)-3-(4-tert-butylbenzamido)-2-methylpiperidin-1-yl]-3-{[4-(4-methylpiperazin-1-yl)phenyl]amino}pyrazine-2-carboxamide], the IC50 [1] is reported as 0.01 to 0.1 µM and the IC50 [2] is reported as at most 0.01 µM.
In the case of `C[C@@H]1[C@H](NC(=O)c2cnc(C3CC3)cn2)CCCN1c1cnc(C(N)=O)c(Nc2cnn(C)c2)n1` [Example D-205, 5-[(2R,3R)-3-(5-cyclopropylpyrazine-2-amido)-2-methylpiperidin-1-yl]-3-[(1-methyl-1H-pyrazol-4-yl)amino]pyrazine-2-carboxamide], the IC50 [1] is reported as 0.01 to 0.1 µM and the IC50 [2] is reported as at most 0.01 µM.
`C[C@@H]1[C@H](NC(=O)c2ccc(C3CC3)cc2)CCCN1c1cnc(C(N)=O)c(Nc2cnn(C)c2)c1` [Example D-207, 5-[(2R,3R)-3-(4-cyclopropylbenzamido)-2-methylpiperidin-1-yl]-3-[(1-methyl-1H-pyrazol-4-yl)amino]pyridine-2-carboxamide] showed an IC50 [1] of 0.1 to 1 µM and an IC50 [2] of at most 0.01 µM.
With `C[C@@H]1[C@H](NC(=O)c2ccc3c(cnn3C)c2)CCCN1c1cnc(C(N)=O)c(Nc2ccc(N3CCN(C)CC3)cc2)n1` [Example D-234, N-[(2R,3R)-1-(5-carbamoyl-6-{[4-(4-methylpiperazin-1-yl)phenyl]amino}pyrazin-2-yl)-2-methylpiperidin-3-yl]-1-methyl-1H-indazole-5-carboxamide] the IC50 [1] was 0.01 to 0.1 µM and the IC50 [2] was at most 0.01 µM.
`C[C@@H]1[C@H](NC(=O)c2ccc(OC3CC3)cc2)CCCN1c1cnc(C(N)=O)c(Nc2cnn(C)c2)n1` [Example D-219, 5-[(2R,3R)-3-(4-cyclopropoxybenzamido)-2-methylpiperidin-1-yl]-3-[(1-methyl-1H-pyrazol-4-yl)amino]pyrazine-2-carboxamide] was tested, and the IC50 [1] was 0.01 to 0.1 µM and the IC50 [2] was at most 0.01 µM.
`Cn1cc(Nc2nc(N3C4CCC(NC(=O)c5ccc(C6CC6)cc5)C3CC4)cnc2C(N)=O)cn1` (single isomer, unassigned) [Example D-201, 5-[2-(4-cyclopropylbenzamido)-8-azabicyclo[3.2.1]octan-8-yl]-3-[(1-methyl-1H-pyrazol-4-yl)amino]pyrazine-2-carboxamide] was tested, and the IC50 [1] was 0.01 to 0.1 µM and the IC50 [2] was at most 0.01 µM.
`C[C@@H]1[C@H](NC(=O)c2ccc(C3CC3)nc2)CCCN1c1cnc(C(N)=O)c(Nc2ccc(N3CCN(C)CC3)cc2)n1` [Example D-203, 5-[(2R,3R)-3-(6-cyclopropylpyridine-3-amido)-2-methylpiperidin-1-yl]-3-{[4-(4-methylpiperazin-1-yl)phenyl]amino}pyrazine-2-carboxamide] showed an IC50 [1] of 0.01 to 0.1 µM and an IC50 [2] of at most 0.01 µM.
Work on `C[C@@H]1[C@H](NC(=O)c2ccc(C3(C)COC3)cc2)CCCN1c1cnc(C(N)=O)c(Nc2cnn(C)c2)n1` [Example D-228, 3-[(1-methyl-1H-pyrazol-4-yl)amino]-5-[(2R,3R)-2-methyl-3-[4-(3-methyloxetan-3-yl)benzamido]piperidin-1-yl]pyrazine-2-carboxamide] yielded an IC50 [1] of 0.01 to 0.1 µM and an IC50 [2] of at most 0.01 µM.
`CCN(CC)c1ccc(C(=O)N[C@@H]2CCCN(c3cnc(C(N)=O)c(Nc4cnn(C)c4)n3)[C@@H]2C)cc1` [Example D-218, 5-[(2R,3R)-3-[4-(diethylamino)benzamido]-2-methylpiperidin-1-yl]-3-[(1-methyl-1H-pyrazol-4-yl)amino]pyrazine-2-carboxamide] showed an IC50 [1] of 0.01 to 0.1 µM and an IC50 [2] of at most 0.01 µM.
Molecule `C[C@@H]1[C@H](NC(=O)c2ccc(S(F)(F)(F)(F)F)cc2)CCCN1c1cnc(C(N)=O)c(Nc2cnn(C)c2)n1` [Example D-230, 3-[(1-methyl-1H-pyrazol-4-yl)amino]-5-[(2R,3R)-2-methyl-3-[4-(pentafluoro-λ^6-sulfanyl)benzamido]piperidin-1-yl]pyrazine-2-carboxamide] has an IC50 [1] of 0.1 to 1 µM and an IC50 [2] of at most 0.01 µM.
For `C[C@@H]1[C@H](NC(=O)c2ccc(SC(F)(F)F)cc2)CCCN1c1cnc(C(N)=O)c(Nc2ccc(N3CCN(C)CC3)cc2)n1` [Example D-233, 5-[(2R,3R)-2-methyl-3-{4-[(trifluoromethyl)sulfanyl]benzamido}piperidin-1-yl]-3-{[4-(4-methylpiperazin-1-yl)phenyl]amino}pyrazine-2-carboxamide], the IC50 [1] was 0.01 to 0.1 µM and the IC50 [2] was at most 0.01 µM.
`Cn1cc(Nc2nc(N3C[C@@H](NC(=O)c4ccc(C5CC5)cc4)CC(F)(F)C3)cnc2C(N)=O)cn1` [Example D-189, 5-[(5S)-5-(4-cyclopropylbenzamido)-3,3-difluoropiperidin-1-yl]-3-[(1-methyl-1H-pyrazol-4-yl)amino]pyrazine-2-carboxamide] gave an IC50 [1] of over 10 µM and an IC50 [2] of 0.1 to 1 µM.
In the case of `C[C@@H]1[C@H](NC(=O)c2ccc(N(C)CCO)cc2)CCCN1c1cnc(C(N)=O)c(Nc2cnn(C)c2)n1` [Example D-217, 5-[(2R,3R)-3-{4-[(2-hydroxyethyl)(methyl)amino]benzamido}-2-methylpiperidin-1-yl]-3-[(1-methyl-1H-pyrazol-4-yl)amino]pyrazine-2-carboxamide], the IC50 [1] is reported as 0.01 to 0.1 µM and the IC50 [2] is reported as at most 0.01 µM.
In the case of `C[C@@H]1[C@H](NC(=O)c2ccc(C3CC3)cc2Cl)CCCN1c1cnc(C(N)=O)c(Nc2ccc(N3CCN(C)CC3)cc2)n1` [Example D-16, 5-[(2R,3R)-3-(2-chloro-4-cyclopropylbenzamido)-2-methylpiperidin-1-yl]-3-{[4-(4-methylpiperazin-1-yl)phenyl]amino}pyrazine-2-carboxamide], the IC50 [1] is reported as 0.1 to 1 µM and the IC50 [2] is reported as at most 0.01 µM.
Work on `Cn1cc(Nc2nc(N3CCC(F)(F)[C@@H](NC(=O)c4ccc(C5CC5)cc4)C3)cnc2C(N)=O)cn1` [Example D-193, 5-[(3S)-3-(4-cyclopropylbenzamido)-4,4-difluoropiperidin-1-yl]-3-[(1-methylpyrazol-4-yl)amino]pyrazine-2-carboxamide] yielded an IC50 [1] of 1 to 10 µM and an IC50 [2] of 0.01 to 0.1 µM.
`C[C@@H]1[C@H](NC(=O)c2ccc(C3CC3)cc2)CCCN1c1cnc(C(N)=O)c(Nc2cnn(CC(C)(C)O)c2)n1` [Example D-215, 5-[(2R,3R)-3-(4-cyclopropylbenzamido)-2-methylpiperidin-1-yl]-3-{[1-(2-hydroxy-2-methylpropyl)-1H-pyrazol-4-yl]amino}pyrazine-2-carboxamide] showed an IC50 [1] of 0.1 to 1 µM and an IC50 [2] of at most 0.01 µM.
In the case of `C[C@@H]1[C@H](NC(=O)c2ccc(C(C)(C)O)cc2)CCCN1c1cnc(C(N)=O)c(Nc2cnn(C)c2)n1` [Example D-194, 5-[(2R,3R)-3-[4-(2-hydroxypropan-2-yl)benzamido]-2-methylpiperidin-1-yl]-3-[(1-methyl-1H-pyrazol-4-yl)amino]pyrazine-2-carboxamide], the IC50 [1] is reported as 0.1 to 1 µM and the IC50 [2] is reported as at most 0.01 µM.
